“Also recorded” adds a separate entry of the source.
Tests used:
Type in all cases: cell-based, human
U87MG cells [1] = experiment: MTT assay; conditions: 24, 48, 72 and 96 hrs of transfection, vs siControl
Experimental: (§1) On day 1, siRNA transfection was carried out. 1 ml of OPTIMEM, 50 picomoles of siRNA (siControl and siFAT1) and 3 μl of LIPOFECTAMINE 2000 was used per well. Cells were then analyzed by flow-cytometery after 72 hrs of transfection to assess the cell cycle distribution of individual cells. Cells were fixed in 70% ethanol overnight at −20′C followed by propidium iodide (PI) staining. Florescence was measured on FACS (florescence activated cell sorter, BD Biosciences, Bedford, Mass.). […] On day 1, transfection was carried out. 50 μl of OPTIMEM, 2 picomoles of siRNA (control and FAT1 siRNA) and 0.5 μl of LIPOFECTAMINE 2000 was used per well. After 4 hrs incubation at 37° C., 50 μl 2× media was added per well. After every time point (24, 48, 72 and 96 hrs of transfection), media was removed from wells and 100 μl of MTT (0.2 mg/ml) was added per well and incubated for 2-4 hrs. The formazan crystals formed were dissolved by addition of 100 μl of DMSO and absorbance was measured at 570 nm.

COX-2 promoter = COX-2 promoter luciferase assay; conditions: U87MG, vs siControl+DMSO; SR11302 10 μM, 48 hrs
Experimental: AP-1 and COX-2 Promoter Luciferase Assay: U87MG cells (40000 cells/well) were plated in 6-well plates in triplicate on day zero. On day 1, cells were transfected with siFAT1 and siControl. On day 2 cells were transiently transfected with 4×AP-1-luciferase reporter plasmids as described previously. Cells were transfected with 1 μg of AP-17× luciferase reporter plasmid, along with 50 ng of pRL-TK (Renilla luciferase) control plasmid using LIPOFECTAMINE2000 as the transfection reagent. After 48 hrs, the cells were lysed by 1× passive-lysis-buffer (Promega, Madison, Wis., USA) and assayed for luciferase activity as previously described. For COX-2 luciferase assay U87MG cells were transfected with siFAT1 and siControl on day 1 and after 4 hrs incubation were treated with 10 μM SR11302. On day2 cells were transiently transfected with COX-2 reporter plasmid and again treated with 10 μM SR11302. After 48 hrs, the cells were assayed for luciferase activity.

U87MG cells [2] = experiment: Cell cycle analysis by flow cytometry (PI staining); conditions: FACS, 72 hrs after transfection, vs siControl
Experimental: as §1

PLAU (Urokinase) = experiment: PLAU mRNA expression by q-PCR; conditions: U87MGsiFAT1 cells
Experimental: (§2) Cell Culture and siRNA Transfection: The human glioma cell lines U87MG, U373, A172, T98G, GOS3 and SW1088 were obtained from ATCC; Rockville, Md., cultured in DMEM (Sigma-Aldrich, Switzerland) supplemented with 10% (v/v) FCS (Sigma-Aldrich), 3.7 g/l sodium bicarbonate (Sigma-Aldrich), Ciprofloxacin 10 μg/ml and 5% CO2 at 37° C. For transfection, 2×10^5 cells were seeded per 25 cm^2 flask. After 24 hrs, cells were transfected with FAT1 siRNA and universal medium GC control siRNA (Invitrogen) according to the manufacturer's protocol with a final concentration of 20 nM of siRNA using LIPOFECTAMINE 2000 (Invitrogen) and Opti-Mem media (Invitrogen). After 4 hrs of siRNA transfection, the media was supplemented with DMEM containing 2×FCS. The ability of each siRNA to mediate knockdown of FAT1 mRNA was confirmed using qRT-PCR. Photomicrographs of the cells were taken using an inverted phase contrast microscope (Nikon TMS, Phase contrast microscope, Japan). For simultaneous knockdown of FAT1 and PDCD4, siRNA from Dharmacon were used. Transfection was performed as earlier with 50 nM of FAT1 siRNA along with 50 nM of PDCD4 siRNA or 50 nM of control siRNA.
(§3) cDNA Synthesis and Quantitative PCR: Total RNA was isolated from cells at appropriate time point (vide supra) using TRIzol reagent (Invitrogen), quantified using a Nanodrop ND-1000 spectrophotometer. […]

VEGF-C = VEGF-C mRNA expression by q-PCR; conditions: U87MGsiFAT1 cells
Experimental: as §2, §3

FAT1 mRNA = experiment: FAT1 knockdown by siRNA, q-PCR for FAT1; conditions: U87MG cell line
Experimental: as §2, §3

IL1β = IL1β mRNA expression by q-PCR; conditions: U87MGsiFAT1 vs siControl
Experimental: as §2, with “The ability of each siRNA to mediate knockdown of FAT1 mRNA was confirmed using qRT-PCR.” left out
cDNA Synthesis and Quantitative PCR: Total RNA was isolated from cells at appropriate time point (vide supra) using TRIzol reagent (Invitrogen), quantified using a Nanodrop ND-1000 spectrophotometer.

MMP3 = MMP3 mRNA expression by q-PCR; conditions: U87MGsiFAT1 cells
Experimental: as §2, §3

## siFAT1: FAT1 specific siRNA (Invitrogen), FAT Stealth RNAi siRNA-I (HSS103567), used for further experiments (sense CCCAACACACCUGUGGUCAUGGUAA; antisense UUACCAUGACCACAGGUGUGUUGGG; Stealth modification, chemistry not fully specified; listed as Homo sapiens)
U87MG cells [1]
  cell viability / proliferation by MTT: no variation; also recorded: No significant difference
COX-2 promoter
  decrease in COX-2 luciferase activity: 1.8 fold
U87MG cells [2]
  distribution of cell population in different phases of cell cycle: no variation; also recorded: No difference
PLAU (Urokinase)
  decrease in PLAU mRNA expression: more than 10 fold
VEGF-C
  decrease in VEGF-C mRNA expression: more than 10 fold
FAT1 mRNA
  knockdown efficiency among three FAT1 siRNAs: maximum knockdown efficiency
IL1β
  reduction in IL1β mRNA expression: ~10 fold
MMP3
  decrease in MMP3 mRNA expression: more than 10 fold
